Holding throughout (assay type): cell-based
One assay deals with T1, human TLR7 (Homo sapiens, UniProt Q9NYK1).
T1 construct: host or cells: HEK-Blue cells
T1 sequence (Q9NYK1 27-1049): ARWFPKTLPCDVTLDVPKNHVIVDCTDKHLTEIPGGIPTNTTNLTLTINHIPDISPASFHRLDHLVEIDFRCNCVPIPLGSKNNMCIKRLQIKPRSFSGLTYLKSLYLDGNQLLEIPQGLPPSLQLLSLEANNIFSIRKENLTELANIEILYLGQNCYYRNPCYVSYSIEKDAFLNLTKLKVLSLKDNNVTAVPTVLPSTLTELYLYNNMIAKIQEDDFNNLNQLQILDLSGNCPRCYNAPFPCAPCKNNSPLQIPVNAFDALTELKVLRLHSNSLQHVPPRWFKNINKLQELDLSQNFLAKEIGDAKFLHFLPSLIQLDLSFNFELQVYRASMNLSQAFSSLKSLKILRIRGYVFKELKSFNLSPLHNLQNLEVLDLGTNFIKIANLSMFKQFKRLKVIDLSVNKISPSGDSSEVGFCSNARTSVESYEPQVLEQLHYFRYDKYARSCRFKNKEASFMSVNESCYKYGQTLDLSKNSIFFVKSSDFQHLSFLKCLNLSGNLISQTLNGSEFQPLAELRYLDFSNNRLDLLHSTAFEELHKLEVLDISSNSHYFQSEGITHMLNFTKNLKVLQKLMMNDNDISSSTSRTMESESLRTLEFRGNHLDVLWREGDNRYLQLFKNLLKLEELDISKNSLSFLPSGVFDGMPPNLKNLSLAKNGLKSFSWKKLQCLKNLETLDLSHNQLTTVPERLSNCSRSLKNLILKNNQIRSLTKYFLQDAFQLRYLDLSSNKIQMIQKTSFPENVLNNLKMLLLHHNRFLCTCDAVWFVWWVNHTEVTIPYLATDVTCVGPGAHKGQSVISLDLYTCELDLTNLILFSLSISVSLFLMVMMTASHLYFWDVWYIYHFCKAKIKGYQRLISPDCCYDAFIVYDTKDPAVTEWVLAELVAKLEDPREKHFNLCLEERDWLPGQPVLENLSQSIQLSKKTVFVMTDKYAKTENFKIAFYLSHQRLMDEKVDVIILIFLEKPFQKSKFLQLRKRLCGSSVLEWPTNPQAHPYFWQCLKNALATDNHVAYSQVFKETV
Nature of the assay: TLR7 inhibition reporter assay (HEK-Blue SEAP reporter, gardiquimod stimulation). Particulars: HEK-Blue cells overexpressing human TLR7, SEAP reporter, gardiquimod 7.5 μM, 22 hour incubation. A digest of the protocol: (§1)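 Screening used HEK-Blue cells overexpressing one human TLR (7, 8 or 9) and an IFN-β minimal promoter–NF-κB/AP-1 SEAP construct. Stimulation lasted 22 h at 37 °C with receptor-specific agonist: gardiquimod, R848 or ODN2006 at 7.5 μM, 15.9 μM and 5 nM.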
(Reporter assays use an easily measured gene product as a stand-in for the process of interest.)

The target of the next assay is T2, human TLR8 (Homo sapiens, UniProt Q9NR97).
T2 construct: host or cells: HEK-Blue cells
T2 sequence (Q9NR97 27-1041): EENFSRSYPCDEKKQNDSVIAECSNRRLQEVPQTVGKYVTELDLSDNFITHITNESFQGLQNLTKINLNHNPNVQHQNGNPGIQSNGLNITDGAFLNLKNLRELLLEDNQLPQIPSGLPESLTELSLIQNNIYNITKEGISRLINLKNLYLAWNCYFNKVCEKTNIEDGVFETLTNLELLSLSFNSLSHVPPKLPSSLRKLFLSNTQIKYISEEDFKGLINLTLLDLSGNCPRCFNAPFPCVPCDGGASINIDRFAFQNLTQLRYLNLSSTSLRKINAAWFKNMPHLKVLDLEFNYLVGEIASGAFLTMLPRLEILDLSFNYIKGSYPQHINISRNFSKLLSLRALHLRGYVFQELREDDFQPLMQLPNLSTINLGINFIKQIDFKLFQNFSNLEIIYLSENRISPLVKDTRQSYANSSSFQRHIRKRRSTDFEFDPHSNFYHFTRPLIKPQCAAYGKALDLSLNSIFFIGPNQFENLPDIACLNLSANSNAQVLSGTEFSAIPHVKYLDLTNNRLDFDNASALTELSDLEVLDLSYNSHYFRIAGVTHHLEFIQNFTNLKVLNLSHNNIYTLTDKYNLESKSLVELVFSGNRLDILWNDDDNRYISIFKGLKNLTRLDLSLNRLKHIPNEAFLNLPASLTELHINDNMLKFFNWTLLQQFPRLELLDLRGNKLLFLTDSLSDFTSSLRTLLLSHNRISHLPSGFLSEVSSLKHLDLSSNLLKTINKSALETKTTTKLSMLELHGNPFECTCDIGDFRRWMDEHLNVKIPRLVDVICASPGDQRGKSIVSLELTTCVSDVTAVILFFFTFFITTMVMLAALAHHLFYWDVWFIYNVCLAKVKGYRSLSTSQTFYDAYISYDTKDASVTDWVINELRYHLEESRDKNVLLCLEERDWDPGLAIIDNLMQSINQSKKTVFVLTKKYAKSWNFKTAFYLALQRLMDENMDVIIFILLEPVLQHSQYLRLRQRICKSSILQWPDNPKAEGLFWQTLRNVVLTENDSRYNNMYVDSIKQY
Nature of the assay: TLR8 inhibition reporter assay (HEK-Blue SEAP reporter, R848 stimulation). Particulars: HEK-Blue cells overexpressing human TLR8, SEAP reporter, R848 15.9 μM, 22 hour incubation. A digest of the protocol:
as §1

The target in another assay is T3, human TLR9 (Homo sapiens, UniProt Q9NR96).
T3 construct: host or cells: HEK-Blue cells
T3 sequence (Q9NR96 26-1032): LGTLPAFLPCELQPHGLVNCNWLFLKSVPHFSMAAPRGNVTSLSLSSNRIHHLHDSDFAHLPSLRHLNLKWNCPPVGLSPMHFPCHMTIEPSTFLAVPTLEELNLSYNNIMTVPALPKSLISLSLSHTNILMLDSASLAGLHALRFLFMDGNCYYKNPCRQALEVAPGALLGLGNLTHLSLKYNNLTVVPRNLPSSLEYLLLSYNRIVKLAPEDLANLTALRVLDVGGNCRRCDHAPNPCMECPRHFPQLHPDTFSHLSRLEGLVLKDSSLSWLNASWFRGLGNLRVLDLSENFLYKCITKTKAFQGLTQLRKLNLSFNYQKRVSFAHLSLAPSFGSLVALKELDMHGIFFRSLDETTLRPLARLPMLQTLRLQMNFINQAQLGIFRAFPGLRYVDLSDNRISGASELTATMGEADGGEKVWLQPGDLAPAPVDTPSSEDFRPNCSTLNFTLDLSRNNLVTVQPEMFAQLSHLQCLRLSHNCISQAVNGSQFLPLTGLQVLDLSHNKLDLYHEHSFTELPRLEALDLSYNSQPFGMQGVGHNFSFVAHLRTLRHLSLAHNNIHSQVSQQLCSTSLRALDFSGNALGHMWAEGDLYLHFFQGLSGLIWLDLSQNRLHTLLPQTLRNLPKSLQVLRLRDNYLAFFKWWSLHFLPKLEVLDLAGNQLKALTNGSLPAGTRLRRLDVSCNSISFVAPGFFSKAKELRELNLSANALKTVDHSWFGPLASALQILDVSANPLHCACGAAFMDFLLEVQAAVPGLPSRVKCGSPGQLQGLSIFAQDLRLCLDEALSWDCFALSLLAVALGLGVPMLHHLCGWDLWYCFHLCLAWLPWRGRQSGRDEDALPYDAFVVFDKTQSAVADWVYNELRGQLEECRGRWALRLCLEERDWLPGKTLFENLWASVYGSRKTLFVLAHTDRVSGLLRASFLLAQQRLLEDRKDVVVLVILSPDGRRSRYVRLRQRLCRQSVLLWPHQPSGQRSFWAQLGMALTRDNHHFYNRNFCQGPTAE
Kind of assay: TLR9 inhibition reporter assay (HEK-Blue SEAP reporter, ODN2006 stimulation). Particulars: HEK-Blue cells overexpressing human TLR9, SEAP reporter, ODN2006 5 nM, 22 hour incubation. The method, boiled down:
as §1

pIC50: −log10 of the molar value.

What is called pIC50 is the negative decadic logarithm of the IC50, by convention in mol/L. Regarding `Cc1c(-c2[nH]c3ccc(C4CCN(CC(C)(C)O)CC4)cc3c2C(C)C)cn(C)c(=O)c1C#N` [Example 322, 5-(5-(1-(2-hydroxy-2-methylpropyl)piperidin-4-yl)-3-isopropyl-1H-indol-2-yl)-1,4-dimethyl-2-oxo-1,2-dihydropyridine-3-carbonitrile], the pIC50 was 7.34 at human TLR7, 9.00 against human TLR8 and 5.32 at human TLR9.
For `CC(C)c1c(-c2cc(-c3cncnc3)c(=O)n(C)c2)[nH]c2ccc(C3CCN(CC4COC4)CC3)cc12` [Example 94, 5-(3-isopropyl-5-(1-(oxetan-3-ylmethyl)piperidin-4-yl)-1H-indol-2-yl)-1-methyl-3-(pyrimidin-5-yl)pyridin-2(1H)-one], in that order: 8.10, 8.89 and 5.69.
For `COc1cc(-c2[nH]c3ccc(C4CCN(CC(=O)N(C)C)CC4)cc3c2C(C)C)cn(C)c1=O` [Example 128, 2-(4-(3-isopropyl-2-(5-methoxy-1-methyl-6-oxo-1,6-dihydropyridin-3-yl)-1H-indol-5-yl)piperidin-1-yl)-N,N-dimethylacetamide], in that order: 8.52, 8.24 and 6.01.
The corresponding values for `COCCn1cc(-c2[nH]c3ccc(C4CCN(C(=O)CN(C)C)CC4)cc3c2C(C)C)cc(C)c1=O` [Example 287, 5-(5-(1-(dimethylglycyl)piperidin-4-yl)-3-isopropyl-1H-indol-2-yl)-1-(2-methoxyethyl)-3-methylpyridin-2(1H)-one] are 8.11, 8.07 and 4.74.
In the case of `Cc1c(-c2[nH]c3ccc(C4CCN(C5COC5)CC4)cc3c2C(C)C)cn(C)c(=O)c1C#N` [Example 221, 5-(3-isopropyl-5-(1-(oxetan-3-yl)piperidin-4-yl)-1H-indol-2-yl)-1,4-dimethyl-2-oxo-1,2-dihydropyridine-3-carbonitrile], the pIC50 is 7.17 against human TLR7, 8.03 at human TLR8 and 4.60 against human TLR9.
For `Cc1cc(-c2[nH]c3ccc(C4CCN(C5CCC(C(F)(F)F)CC5)CC4)cc3c2C(C)C)cn(C)c1=O` (stereo not drawn) [Example 230, 5-(3-isopropyl-5-(1-(4-(trifluoromethyl)cyclohexyl)piperidin-4-yl)-1H-indol-2-yl)-1,3-dimethylpyridin-2(1H)-one], in that order: 7.95, 7.64 and 5.26.
For `Cc1c(-c2[nH]c3ccc(C4CCN(CC5CCCO5)CC4)cc3c2C(C)C)cn(C)c(=O)c1Cl` (stereo not drawn) [Example 250, 3-chloro-5-(3-isopropyl-5-(1-((tetrahydrofuran-2-yl)methyl)piperidin-4-yl)-1H-indol-2-yl)-1,4-dimethylpyridin-2(1H)-one], in that order: 8.20, 8.32 and 5.52.
For `CCCN1CCC(c2ccc3[nH]c(-c4cc(-c5cnc(C(F)(F)F)nc5)c(=O)n(C)c4)c(C(C)C)c3c2)CC1` [Example 339, 5-(3-isopropyl-5-(1-propylpiperidin-4-yl)-1H-indol-2-yl)-1-methyl-3-(2-(trifluoromethyl)pyrimidin-5-yl) pyridin-2(1H)-one], in that order: 7.54, 5.67 and 5.99.
For the molecule `CCn1cc(-c2[nH]c3ccc(C4CCN(C5COC5)CC4)cc3c2C(C)C)cc(C)c1=O` [Example 204, 1-ethyl-5-(3-isopropyl-5-(1-(oxetan-3-yl)piperidin-4-yl)-1H-indol-2-yl)-3-methylpyridin-2(1H)-one], the pIC50 on human TLR7 was 7.84; against human TLR8, 7.74; against human TLR9 it was at most 4.30.
For `Cc1c(-c2[nH]c3ccc(C4CCN(C(=O)CN(C)C)CC4)cc3c2C(C)C)cn(C)c(=O)c1C#N` [Example 274, 5-(5-(1-(dimethylglycyl)piperidin-4-yl)-3-isopropyl-1H-indol-2-yl)-1,4-dimethyl-2-oxo-1,2-dihydropyridine-3-carbonitrile], in that order: 6.74, 7.82 and 5.80.
For `Cc1cc(-c2[nH]c3ccc(C4CCN(C)CC4)cc3c2C(C)C)cn(CCO)c1=O` [Example 264, 1-(2-hydroxyethyl)-5-(3-isopropyl-5-(1-methylpiperidin-4-yl)-1H-indol-2-yl)-3-methylpyridin-2(1H)-one], in that order: 7.87, 6.03 and 5.22.
For `CCn1cc(-c2[nH]c3ccc(C4CCN(C(=O)CN(C)C)CC4)cc3c2C(C)C)c(C)c(C)c1=O` [Example 281, 5-(5-(1-(dimethylglycyl)piperidin-4-yl)-3-isopropyl-1H-indol-2-yl)-1-ethyl-3,4-dimethylpyridin-2(1H)-one], in that order: 7.32, 7.53 and 5.24.

The values above are taken from US11447466B2, “Substituted indole compounds useful as inhibitors of TLR7/8/9” (BRISTOL-MYERS SQUIBB COMPANY, priority 2017, dated 2022).
